The values below come from the OPERA property sets (Mansouri et al. 2018).

Where a SMILES comes first, the peptide text is derived from it. [ ]: non-standard residue; d: D form. Orn = NCCC[CH](N)C(=O)O

As for `CCC(C)C(NC(=O)C(CCCN)NC(C)=O)C(=O)NC(C(N)=O)C(C)C` (stereo not drawn) (Ac-[Orn]-Ile-Val-NH2; configuration not given here), the logP (usually the decadic logarithm of the partition coefficient of the neutral form, usually between octanol and water) was -0.43. Then `CCCCCOC(=O)C(C(=O)OCCCCC)=C1SCCS1`, with 5.6. Consider `CCc1cccc(NC(=O)Cc2ccccc2)c1`, for which the logP turned out to be 3.47. On to `O=C(NCCCO)C(F)(F)Cn1cnc([N+](=O)[O-])n1`, for which the lipophilicity (logP) is -0.63. With `CCC(C)NC(=O)C(Br)=Cc1ccccc1` (centres undefined) the figure was 2.66; with `Cc1ccccc1NN=C(C#N)C#N`, 2.38; with `O=C(Cn1ccnc1[N+](=O)[O-])NCCCO`, -1.27. For the molecule `C1CC2=NOS3=C2C(=NO3)C1`, the lipophilicity (logP) was determined as 1.1. `Cc1cccc(C)c1NC(=O)c1ccc(CN2CCOCC2)cc1`: the logP is 2.

As for `CC1NC(=O)C(CC(=O)NC(Cc2cn(C(=O)OCc3ccccc3)c3ccccc23)C(=O)NC(Cc2ccccc2)C(=O)N(C)Cc2ccccc2)NC1=O` (centres undefined), the logP came to 5.66.

As to `Cc1cccc(Cl)c1Cl`, the lipophilicity (logP) is 3.96. `CC(C)C(=O)NS(=O)(=O)c1ccc(C(F)(F)F)cc1N` gave a logP of 2.56. `COC1CC(OC2CCC3(C=O)C4CCC5(C)C(C6=CC(=O)OC6)CCC5(O)C4CCC3(O)C2)OCC1OC1CC(O)C(O)C(C)O1` (centres undefined) showed a log partition coefficient (logP) of -0.96. The molecule `CCCCCCOc1ccc(NC(=O)OCCN2CCOCC2)cc1` yielded a logP of 4.51. With `O=[N+]([O-])c1cnc(-c2ccc(F)cc2)[nH]1` the figure was 1.52. Regarding `CCN1C(=O)C(=O)c2cc(OC)c(OC)cc2C1=O`, the log partition coefficient (logP) turned out to be 1.31. Regarding `CCOC(CC)(OCC)OCC`, the logP amounted to 1.97. Take `COC(C)(C(=O)O)c1ccccc1` (centres undefined): the lipophilicity (logP) is 1.64. In the case of `CCN1C(=O)C(=O)c2c(OC)cccc2C1=O`, the lipophilicity (logP) was determined as 0.9. For the molecule `CCCCCC1CC(C(=O)NC(C(C)O)C2OC(SC)C(O)C(O)C2O)N(C)C1` (centres undefined), the log partition coefficient (logP) amounted to 0.93. In turn, `c1ccc([C@H]2CN3CCSC3=N2)cc1` returned a logP of 1.84. `O=[N+]([O-])C=C1SCCN1Cc1ccc(Cl)nc1` gave a logP of 0.65.

`CCC(C)NC(=O)C=C(N)c1ccc(Cl)cc1` (centres undefined): the logP turned out to be 2.94. `COCc1ccc(O)c2ncccc12` came in with a logP of 1.78.

Consider `COc1nc(N(C)C)nc(C(Cl)(Cl)Cl)n1`, for which the log partition coefficient (logP) was 3.33.

As for `Clc1ccc(-c2c(Cl)c(Cl)cc(Cl)c2Cl)cc1Cl`, the logP amounted to 7.2. `CC(C)NC(=O)C1(O)C(C)CC2C3CCC4=CC(=O)C=CC4(C)C3(F)C(O)CC21C` (centres undefined) registered a log partition coefficient (logP) of 2.43.

In turn, `CC(=O)OCN1C(=O)C2=C(CCCC2)C1=O` registered a log partition coefficient (logP) of 1.15.

Take `O=[N+]([O-])N=C1NCCN1Cc1cccnc1`: the lipophilicity (logP) was -0.19. Molecule `Clc1cc(Cl)c(-c2ccc(Cl)c(Cl)c2Cl)c(Cl)c1` gave a logP of 7.25. For the molecule `O=[N+]([O-])C=C1NCCCN1Cc1ccc(Cl)nc1`, the log partition coefficient (logP) was -0.62. `COC(=O)c1ccc(OCC(OC(=O)n2ccnc2)C(C)(C)C)cc1` (centres undefined) came in with a logP of 3.59. `N#CC(CCc1ccc(Cl)cc1)(Cn1cncn1)c1ccccc1` (centres undefined) registered a logP of 3.23.

`O=[N+]([O-])C=C1NCCN1Cc1ccc(Cl)nc1` yielded a logP of -0.19. As for `CCC(=O)C1(c2cccc(OC(C)=O)c2)CCN(C)CC1`, the lipophilicity (logP) is 1.05.

As to `ON=Cc1nnc(-c2ccccc2)o1`, the log partition coefficient (logP) worked out at 2.03.

`ClC(Cl)(Cl)c1nc(C(Cl)(Cl)Cl)nc(C(Cl)(Cl)Cl)n1` yielded a log partition coefficient (logP) of 3.75. The molecule `CC(=O)OC(C(=O)NC1C(=O)N2C(C(=O)O)=C(C)CSC12)c1ccccc1` (centres undefined) displayed a log partition coefficient (logP) of 1.02. `Cc1nc([N+](=O)[O-])c(C)[nH]1` displayed a log partition coefficient (logP) of 0.43. On to `CN(C)C=Nc1ccn(C2OC(CO)C(O)C2O)c(=O)n1` (centres undefined), for which the logP is -1.68.

As for `CN(C)N=Nc1ccc([N+](=O)[O-])cc1`, the log partition coefficient (logP) was determined as 3.25.

Molecule `Oc1ccc(I)c2cccnc12` returned a logP of 3.27. Take `C1CCC2=NCCCN2CC1`: the logP worked out at 1.38.

With `Nc1nc(=O)n(C2CCC(CO)O2)cc1I` (centres undefined), the lipophilicity (logP) was -0.31. Molecule `CN(C)c1nc(=O)n(C2CCCCC2)c(=O)n1C` yielded a logP of 1.85. Then `CNC(=O)C1(O)C(C)CC2C3CCC4=CC(=O)C=CC4(C)C3(F)C(O)CC21C` (centres undefined), with 1.54; and `CC(C)Oc1cccc(NC(=O)c2ccccc2C(F)(F)F)c1`, with 3.7; and `CCN1CC(C(O)C(CC2CCCCC2)NC(=O)C(Cc2c[nH]cn2)NC(=O)C(Cc2ccc(OC)cc2)NC(=O)C(C)C)OC1=O` (centres undefined), with 2.85. With `COc1ccc(-n2ccc(=O)c(O)c2C)cc1` the figure was 1.27. Consider `O=[N+]([O-])C=C1NCCN1Cc1cnc(Cl)s1`, for which the log partition coefficient (logP) was -0.04. With `Cn1c([N+](=O)[O-])cnc1-c1ccc(N)cc1` the figure was 1.06. In the case of `c1ccc(OCc2cccc(CN3CCCC3)c2)cc1`, the logP amounted to 3.75. Consider `Cc1[nH]cnc1CSCCNc1cc(=O)cc[nH]1`, for which the logP stood at 0.8.

With `CCCCC(C#N)(Cn1cncn1)c1ccc(Cl)cc1` (centres undefined), the lipophilicity (logP) was 2.94. As to `Cc1cccc(C)c1NN=C(C#N)C#N`, the logP stood at 2.8. For the molecule `CC(C)CNCCCS(=O)(=O)c1ccc(S(N)(=O)=O)s1`, the lipophilicity (logP) is -0.35.

With `N#CC(C#N)=NNc1ccccc1Cl`, the logP was found to be 3.12. Molecule `COC(=O)CNC(=O)C1(O)C(C)CC2C3CCC4=CC(=O)C=CC4(C)C3(F)C(O)CC21C` (centres undefined) returned a log partition coefficient (logP) of 1.69. Molecule `CCn1cc(C(=O)O)c(=O)c2ccc(C)nc21` returned a lipophilicity (logP) of 1.59.

`Fc1ccc(C(c2ccc(F)cc2)N2CCN(C/C=C/c3ccccc3)CC2)cc1`: the log partition coefficient (logP) was determined as 5.78. Turning to `COc1cc(O)cc(OC)c1O`, the lipophilicity (logP) was determined as 0.17.

`Oc1c(I)cc(I)cc1I` displayed a lipophilicity (logP) of 4.5. Molecule `Cc1cn(C2CC(N=[N+]=[N-])C(COC(=O)CNC(=O)C34CC5CC(CC(C5)C3)C4)O2)c(=O)[nH]c1=O` (centres undefined) returned a logP of 2.1.

`Clc1cc2c(cc1Cl)Oc1c(cc(Cl)c(Cl)c1Cl)O2` yielded a logP of 6.64.

For `CCCCCCCOc1ccc(NC(=O)OCCN2CCOCC2)cc1`, the log partition coefficient (logP) was determined as 4.96. In the case of `CCCCCCCOc1cccc(NC(=O)OCCN2CCOCC2)c1`, the logP came to 5.28. `O=[N+]([O-])c1cnc(C=Cc2ccccc2)n1CCO` gave a logP of 2.25. As to `c1nnn(C23CC4CC(CC(C4)C2)C3)n1`, the log partition coefficient (logP) was 2.95.

The molecule `O=c1[nH]c(Nc2ccccc2)nc2c1ncn2CC(O)CSCCO` (centres undefined) displayed a logP of 0.83. Consider `CCN1C(=O)NC(=O)C(=O)C1=O`, for which the logP was -0.32. Consider `OCC1CCC(n2cnc3cncnc32)O1` (centres undefined), for which the log partition coefficient (logP) was -0.47. With `CCCCCNC(=O)C1(O)C(C)CC2C3CCC4=CC(=O)C=CC4(C)C3(F)C(O)CC21C` (centres undefined) the figure was 3.64; with `N#CN=C1NCCN1Cc1cccnc1`, 0.77. `COCC(F)Cn1cnc([N+](=O)[O-])n1` (centres undefined) yielded a lipophilicity (logP) of -0.04. As for `Cc1ncc([N+](=O)[O-])n1CCc1ccncc1`, the logP was 0.06. For the molecule `CCOC(=O)C(C)Oc1ccc(Oc2cnc3ccccc3n2)cc1` (centres undefined), the lipophilicity (logP) came to 3.47. With `CCOc1ccc(C(=O)O)cc1OCC` the figure was 2.37; with `C=C1C(=O)OC2CC(C)C3C=CC(=O)C3(C)C(OC(=O)CCCC(=O)OC3C4C(=C)C(=O)OC4CC(C)C4C=CC(=O)C43C)C12` (centres undefined), 1.37; with `OC1CCN(CCCc2ccccc2COc2ccccc2)CC1`, 3.21. Molecule `COc1nc(N)nc(C(Cl)(Cl)Cl)n1` displayed a log partition coefficient (logP) of 2.39. `NS(=O)(=O)c1ccc2ccccc2c1` returned a log partition coefficient (logP) of 1.55.

On to `S=C=NCCCCc1cccnc1`, for which the logP was found to be 2.7. Molecule `C=CCOC1=NS(=O)(=O)c2ccccc21` gave a logP of 1.4. Consider `O=c1nc(N=CN2CCCC2)ccn1C1OC(CO)C(O)C1O` (centres undefined), for which the logP is -1.15. With `CCC1COC(Cn2cncn2)(c2ccc(NC(=O)c3ccc([N+](=O)[O-])cc3)cc2)O1` (centres undefined) the figure was 2.17; with `Cc1ccc(Cl)c(Cl)c1Cl`, 4.56.

The molecule `COc1cc(OCc2ccccc2CCCN2CCC(O)CC2)cc(OC)c1OC` yielded a logP of 2.6. In the case of `COCCNC(=O)C(F)(F)Cn1cnc([N+](=O)[O-])n1`, the logP was -0.15. `COC1=CC2CCC(NC(C)=O)c3cc(=O)c(OC)ccc3C2C(OC)=C1O` (centres undefined) returned a lipophilicity (logP) of 0.47.

`CCCCOc1ccc(NC(=O)OCCN2CCOCC2)cc1` had a logP of 3.35. `Cc1ccc(Cl)c(OCC(O)CNC(C)(C)C)c1` (centres undefined): the lipophilicity (logP) was 2.97. With `NC(COCc1cccnc1)C(=O)O` (centres undefined) the figure was -2.44; with `O=C(O)Cc1nn(Cc2nc3cc(Br)ccc3s2)c(=O)c2ccccc12`, 3.35; with `CCCOc1ccc(NC(=O)OCCN2CCOCC2)cc1`, 2.78. Regarding `C#CCC(O)(c1cccnc1)c1ccc(Cl)cc1Cl` (centres undefined), the logP stood at 2.29. Take `CSc1nc(Nc2ccc(Cl)cc2)nc(C(Cl)(Cl)Cl)n1`: the logP stood at 5.71. `Cc1c([N+](=O)[O-])ncn1C` returned a logP of -0.11. On to `CCCCCC(=O)OCCOCn1cnc2c(=O)[nH]c(N)nc21`, for which the logP worked out at 0.93. `Cc1cc(O)cc(Br)c1O` registered a logP of 1.38. In the case of `CCOC(=O)C(C)Oc1ccc(Oc2cnc3cc(C)ccc3n2)cc1` (centres undefined), the log partition coefficient (logP) was determined as 4.11. On to `C#CCON=CNc1cc(Cl)c(OCC#C)c(Cl)c1`, for which the lipophilicity (logP) was 3.3. With `CCCCCCC(C)(C)c1ccc(C2CC(O)CC3CCC(O)CC32)c(O)c1` (centres undefined), the logP was 6.13.

With `CC1(CO)COC(Cn2cncn2)(c2ccc(Cl)cc2Cl)OC1` (centres undefined), the lipophilicity (logP) is 2.1.

Molecule `COc1cccc(OC)c1-c1nc2ccncc2[nH]1` showed a lipophilicity (logP) of 1.66. Molecule `Nc1ncc(Cc2ccccc2Cl)c(N)n1` registered a logP of 2.24.

On to `O=[N+]([O-])c1nccn1COC(CO)CO`, for which the lipophilicity (logP) was -1.17.

Molecule `CCC(C)(C)c1ccc(C2CCCC(O)C2)c(O)c1` (centres undefined) gave a logP of 4.32. For `CCC1(CC)OCC(c2ccc(NC(=O)N(C)C)cc2C)CO1`, the logP came to 2.76. With `CCSc1nc(NC(C)C)nc(NC(C)C)n1`, the log partition coefficient (logP) stood at 3.81. With `COc1ccc(OCCO)cc1` the figure was 1.13; with `CCCCN1C(=O)C(=O)c2ccccc2C1=O`, 2.18. On to `C#CCOc1c(Cl)cc(NC=NOC)cc1Cl`, for which the logP was 3.3. On to `COc1c(O)cc2c(c1OC)-c1ccc(SC)c(=O)cc1C(NC(C)=O)CC2` (centres undefined), for which the log partition coefficient (logP) is 1.43. Consider `O=[N+]([O-])C=C1NCCN1Cc1ccncc1`, for which the logP was -1.05.
